Measurements published in patent US20070249555A1, “Use of Atp Analogues for Treatment of Cardiovascular Diseases” (INSTITUT NATIONAL DE LA SANTE ET DE LA RECHERCHE MEDICALE …, priority 2004, published 2007).

What was measured:
human P2Y13 receptor = molecular target: T1, human P2Y13 receptor (Homo sapiens, UniProt Q9BPV8); experiment: forskolin-induced cAMP formation in hP2Y13-CHO-K1 cells; assay type: cell-based; details: forskolin 3 μM; for maximal inhibition (decrease) of forskolin-induced cAMP accumulation / IC50: hP2Y13-CHO-K1 cells, 12 min; for IC50: read-out: IC50 for inhibition of forskolin-induced cAMP accumulation
T1 construct: expressed in transfected cells
T1 sequence (Q9BPV8 22-354 limits assumed): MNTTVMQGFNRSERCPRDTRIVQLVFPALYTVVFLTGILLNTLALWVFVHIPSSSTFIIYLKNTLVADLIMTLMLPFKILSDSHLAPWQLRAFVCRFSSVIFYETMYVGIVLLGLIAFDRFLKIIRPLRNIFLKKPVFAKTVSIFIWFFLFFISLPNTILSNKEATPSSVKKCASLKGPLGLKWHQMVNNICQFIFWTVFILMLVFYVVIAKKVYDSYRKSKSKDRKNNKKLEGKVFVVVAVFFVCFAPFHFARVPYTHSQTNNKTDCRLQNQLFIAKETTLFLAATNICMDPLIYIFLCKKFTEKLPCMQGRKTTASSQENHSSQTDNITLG
Description: The cells were incubated with various concentrations of these agents for 12 min as described in “Materials and Methods”. Data are expressed in % on the value with forskolin alone and presented as mean ±S.D. of triplicates in one representative experiment out of 4.
AR-C69931MX and ADP (at increasing concentrations) were added simultaneously with forskolin to hP2Y13-CHO-K1 cells for a 12 min incubation period. Data are expressed in % of the value with forskolin alone and presented as mean ±S.D. of triplicates in one representative experiment out of 2. (▴): ADP without AR-C69931MW; (●): ADP+AR-C69931MX (100 nM).
The cyclic AMP assays was performed on CHO-K1 cell lines expressing recombinant P2Y receptors as follows.
The CHO-K1 cell line stably expressing the human P2Y13 receptor has been previously described (Communi et al., J Biol Chem, 2001, 276: 41479-85). The plasmid of human P2Y12 receptor (hP2Y12-pEFIN5) was obtained from Euroscreen (Gosselies, Belgium) and was stably transfected into CHO-K1 cells by using the FuGENETM6 transfection reagent (Roche Applied Science, Mannheim, Germany). Transfected cells were selected using G418 (400 μg/ml). The hP2Y13-CHO-K1 and HP2Y12-CHO-K1 cells were grown in Ham'S F12 cell culture medium (Invitrogen-France) supplemented with fetal bovine serum (10%, v/v), penicillin (100 units/ml), streptomycin (100 μg/ml) and G418 (400 μg/ml).
The stably transfected CHO-K1 cells (200,000 cells/dish) were seeded on 35-mm diameter cell culture dishes in complete medium one day before the experiment. Cells were incubated for 2 hours in Krebs-Ringer-Hepes (KRH) buffer (124 mM NaCl, 5 mM KCl, 1.25 mM MgSO4, 1.45 mM CaCl2, 1.25 mM KH2PO4, 25 mM HEPES, pH 7.4, and 8 mM D-glucose) containing 25 μM Rolipram. Nucleotides were then added in presence of 3 μM forskolin, usually for a 12 min incubation (37° C.). The reactions were stopped by aspiration of the incubation medium and addition of 1 ml of 0.1 M HCl. The lysates were then vacuum dried and re-suspended in an appropriate volume of water. Cyclic AMP was quantified by 125l radioimmunoassay, as described in Communi et al., J Biol Chem, 2001, 276: 41479-85.

human P2Y1 receptor = molecular target: T2, human P2Y1 receptor (Homo sapiens, UniProt P47900); experiment: TG-HDL2 internalization by HepG2 cells after P2Y1 receptor silencing by siRNA; assay type: cell-based; details: HepG2, pool of 4 P2Y1 siRNAs 100 nM, 48 h; apoA-I 10 μg/ml, ADP 100 nM, AR-C69931MX 100 nM
T2 construct: host or cells: HepG2
Description: HepG2 cells were transiently transfected with siRNA designated to human P2Y1 receptor (columns d, e, f, g) or with non specific siRNA as control (a, b, c). 48 hours later, cells were incubated for 10 minutes at 37° C. with 75 μg/ml ^125I-TG HDL2 without (control) or with apolipoprotein A-I 10 μg/ml (a and d), ADP 100 nM (b and e), AR-C69931MX 100 nM (c and f), PBS (g). Data are expressed as a percentage of internalized radioactivity with respect to the control value (set as 0) (n>5); (*) p<0.05 (unpaired t-test).
(§1) Internalization assays were performed as described in Guendouzi et al., (Biochemistry, 1998, 37: 14974-80) on HepG2 cells, obtained from the American Type Culture Collection ([…]). Cells were incubated for 10 minutes at 37° C. with 75 μg/ml of either ^125I-TG-HDL2, ^125I-HDL3 or ^125I-LDL. After washing and dissociation at 4° C. in phosphate buffered saline (PBS), cell radioactivity was determined using a Wallac 1261 multigamma apparatus.
(§2) The silencing of the different P2Y receptors were carried-out using the siRNA technique. The siRNA sequenced targeting human P2Y13 receptor (Gene Bank GB/EMBL/DDBJ accession number AF295368) was from position 406 or 359 relative to the start codon. The siRNA duplex (21-nt-RNAs) in deprotected and desalted form, the siRNA targeting human P2Y1 receptor (a mix of 4 siRNAs, M-005689), and the non-specific control siRNA (D-001206-01) were purchased from Dharmacon Inc. Subconfluent HepG2 cells were transiently transfected with siRNAs (final concentration, 100 nM) using Oligofectamine™ according to the manufacturer's protocole (Invitrogen). Cells were usually assayed 48 hours after transfection. Specific silencing effect was confirmed by at least three independent experiments.
Results are expressed as a percentage of internalization with respect to the control value (set at 0). Control corresponded to a basal value of internalization, amounting to 400 ng, 300 ng, 200 ng of TG-HDL2, HDL3 and LDL per mg of cells protein respectively for 10 minutes. […]

HepG2 cells = experiment: LDL internalization by HepG2 cells, without or with P2Y13 receptor silencing; assay type: cell-based, human; details: HepG2, 75 μg/ml 125I-LDL, 100 nM, both without or with P2Y13 receptors silencing
Description: Experiment was performed as in FIG. 2C except that HepG2 cells were incubated for 10 minutes at 37° C. with 75 μg/ml ^125I-LDL (n>6).
as §1
as §2, with “Specific silencing effect was confirmed by at least three independent experiments.” left out
Results are expressed as a percentage of internalization with respect to the control value (set at 0). […]

T2 sequence (P47900 whole entry): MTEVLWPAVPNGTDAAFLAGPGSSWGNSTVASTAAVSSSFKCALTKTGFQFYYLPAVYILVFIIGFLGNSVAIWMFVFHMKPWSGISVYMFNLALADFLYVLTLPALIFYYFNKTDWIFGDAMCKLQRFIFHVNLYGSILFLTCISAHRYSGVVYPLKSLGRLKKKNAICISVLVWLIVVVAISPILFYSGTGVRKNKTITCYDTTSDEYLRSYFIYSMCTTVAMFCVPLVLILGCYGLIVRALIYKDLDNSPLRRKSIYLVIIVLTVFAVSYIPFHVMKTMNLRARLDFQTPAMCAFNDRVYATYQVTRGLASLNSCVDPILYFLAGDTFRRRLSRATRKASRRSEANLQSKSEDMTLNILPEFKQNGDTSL

| SMILES | maximal inhibition (decrease) of forskolin-induced cAMP accumulation (human P2Y13 receptor) [%] | IC50 (human P2Y13 receptor) [nM] | effect of P2Y1 receptors silencing on the stimulation of TG-HDL2 endocytosis (human P2Y1 receptor) | stimulation of internalization of 125I-labelled LDL (HepG2 cells) | behaviour at P2Y13 receptor (modulation of ADP effect on cAMP) (human P2Y13 receptor; AR-C69931MX 100 nM with increasing ADP) |
| --- | --- | --- | --- | --- | --- |
| Nc1ncnc2c1ncn2[C@@H]1O[C@H](COP(=O)(O)OP(=O)(O)O)[C@@H](O)[C@H]1O [ADP, adenosine diphosphate, reference compound] | 70 | 0.6 ± 0.2 | no effect | lack of stimulation | – |
| CSCCNc1nc(SCCC(F)(F)F)nc2c1ncn2[C@@H]1O[C@H](COP(=O)(O)OP(=O)(O)C(Cl)(Cl)P(=O)(O)O)[C@@H](O)[C@H]1O [AR-C69931MX, N-[2-(methylthio)ethyl]-2-[(3,3,3-trifluoropropyl)thio]-5′-adenylic acid, monoanhydride with dichloromethylenebisphosphonic acid] | 25 | 0.5 ± 0.1 | no effect | lack of stimulation | partial agonist |
